Experimental data reported in the supplement of paper PMC10307832.

How the values were obtained:
Test in all cases: relative viability (nuclei count vs DMSO), 5 days (fraction); higher = more cells survive
[1] = compound: Cc1nc(C(=O)NCC(=O)O)c(O)c2ccc(Oc3ccccc3)cc12 [FG-4592] + C[C@@H](Oc1cc(-c2cnn(C3CCNCC3)c2)cnc1N)c1c(Cl)ccc(F)c1Cl [Crizotinib] (partner 1 µM)
In short: (§1)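 A single step with final 0.05% Triton X-100, 1% formaldehyde and 1 ug/ml Hoechst fixed the cells and stained nuclei 5 days after treatment. Lung cancer cell lines in 1536-well plates had been treated by pin tool the day after seeding with one drug alone or a fixed anchor-drug dose plus five library-drug doses (not always all listed) in √10 steps, and nuclei were counted on 4× images. Relative viability is the ratio of nuclei in treated wells to nuclei in vehicle wells, taken as the median of duplicate plates.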

[2] = compound: Cc1nc(C(=O)NCC(=O)O)c(O)c2ccc(Oc3ccccc3)cc12 [FG-4592] + O=C(c1cc(Cc2n[nH]c(=O)c3ccccc23)ccc1F)N1CCN(C(=O)C2CC2)CC1 [Olaparib] (partner 8 µM)
In short: as §1

[3] = compound: Cc1nc(C(=O)NCC(=O)O)c(O)c2ccc(Oc3ccccc3)cc12 [FG-4592] + Nc1nc2[nH]cc(CCc3ccc(C(=O)N[C@@H](CCC(=O)O)C(=O)O)cc3)c2c(=O)[nH]1 [Pemetrexed] (partner 0.2 µM)
In short: as §1

[4] = compound: CC1=CC(=C(N1C2=CC=C(C=C2)Cl)C)C(=O)CN3CCCCC3 [IU1-47] + C[C@]1(O)C[C@@H](c2nc(-c3ccc4ccc(-c5ccccc5)nc4c3)c3c(N)nccn32)C1 [Linsitinib] (partner 1 µM)
In short: as §1

NCI-H2023 gave a relative viability ([1]; first compound 0.08 µM) of 0.609, a relative viability ([1]; first compound 0.253 µM) of 0.66 and a relative viability ([1]; first compound 0.8 µM) of 0.703. The relative viability ([1]; first compound 2.53 µM) was 0.768, the relative viability ([1]; first compound 8 µM) was 0.544 and the relative viability ([2]; first compound 0.08 µM) was 0.402. It also gave a relative viability ([2]; first compound 0.253 µM) of 0.471, a relative viability ([2]; first compound 0.8 µM) of 0.437 and a relative viability ([2]; first compound 2.53 µM) of 0.464. It also gave a relative viability ([2]; first compound 8 µM) of 0.35, a relative viability ([3]; first compound 0.08 µM) of 0.228 and a relative viability ([3]; first compound 0.253 µM) of 0.198. It also gave a relative viability ([3]; first compound 0.8 µM) of 0.244, a relative viability ([3]; first compound 2.53 µM) of 0.232 and a relative viability ([3]; first compound 8 µM) of 0.217. The relative viability ([4]; first compound 0.08 µM) was 0.701, the relative viability ([4]; first compound 0.253 µM) was 0.686 and the relative viability ([4]; first compound 0.8 µM) was 0.665. For the same cell line, the relative viability ([4]; first compound 2.53 µM) was 0.617 and the relative viability ([4]; first compound 8 µM) was 0.611.

COR-L 105 was tested, and the relative viability ([1]; first compound 0.08 µM) was 0.785, the relative viability ([1]; first compound 0.253 µM) was 0.578 and the relative viability ([1]; first compound 0.8 µM) was 0.77. For the same cell line, the relative viability ([1]; first compound 2.53 µM) was 0.898, the relative viability ([1]; first compound 8 µM) was 0.723 and the relative viability ([2]; first compound 0.08 µM) was 0.767. For the same cell line, the relative viability ([2]; first compound 0.253 µM) was 0.787, the relative viability ([2]; first compound 0.8 µM) was 0.792 and the relative viability ([2]; first compound 2.53 µM) was 0.719. For the same cell line, the relative viability ([2]; first compound 8 µM) was 0.635, the relative viability ([3]; first compound 0.08 µM) was 1.03 and the relative viability ([3]; first compound 0.253 µM) was 0.92. The relative viability ([3]; first compound 0.8 µM) was 1.13, the relative viability ([3]; first compound 2.53 µM) was 1.14 and the relative viability ([3]; first compound 8 µM) was 0.877. It also gave a relative viability ([4]; first compound 0.08 µM) of 1.02, a relative viability ([4]; first compound 0.253 µM) of 0.875 and a relative viability ([4]; first compound 0.8 µM) of 1.08. For the same cell line, the relative viability ([4]; first compound 2.53 µM) was 1.03 and the relative viability ([4]; first compound 8 µM) was 0.89.

Cell Line RERF-LC-KJ has a relative viability ([1]; first compound 0.08 µM) of 0.798, a relative viability ([1]; first compound 0.253 µM) of 0.8 and a relative viability ([1]; first compound 0.8 µM) of 0.849. For the same cell line, the relative viability ([1]; first compound 2.53 µM) was 0.837, the relative viability ([1]; first compound 8 µM) was 0.771 and the relative viability ([2]; first compound 0.08 µM) was 0.853. The relative viability ([2]; first compound 0.253 µM) was 0.913, the relative viability ([2]; first compound 0.8 µM) was 0.861 and the relative viability ([2]; first compound 2.53 µM) was 0.996. It also gave a relative viability ([2]; first compound 8 µM) of 0.894, a relative viability ([3]; first compound 0.08 µM) of 0.466 and a relative viability ([3]; first compound 0.253 µM) of 0.472. The relative viability ([3]; first compound 0.8 µM) was 0.481, the relative viability ([3]; first compound 2.53 µM) was 0.486 and the relative viability ([3]; first compound 8 µM) was 0.498. The relative viability ([4]; first compound 0.08 µM) was 0.889, the relative viability ([4]; first compound 0.253 µM) was 0.865 and the relative viability ([4]; first compound 0.8 µM) was 0.872. It also gave a relative viability ([4]; first compound 2.53 µM) of 0.957 and a relative viability ([4]; first compound 8 µM) of 0.893.

LXF-289 gave a relative viability ([1]; first compound 0.08 µM) of 0.796, a relative viability ([1]; first compound 0.253 µM) of 0.721 and a relative viability ([1]; first compound 0.8 µM) of 0.911. It also gave a relative viability ([1]; first compound 2.53 µM) of 0.77, a relative viability ([1]; first compound 8 µM) of 0.901 and a relative viability ([2]; first compound 0.08 µM) of 1.09. It also gave a relative viability ([2]; first compound 0.253 µM) of 0.961, a relative viability ([2]; first compound 0.8 µM) of 1.07 and a relative viability ([2]; first compound 2.53 µM) of 1.01. The relative viability ([2]; first compound 8 µM) was 1.1, the relative viability ([3]; first compound 0.08 µM) was 0.853 and the relative viability ([3]; first compound 0.253 µM) was 0.906. For the same cell line, the relative viability ([3]; first compound 0.8 µM) was 1.02, the relative viability ([3]; first compound 2.53 µM) was 0.883 and the relative viability ([3]; first compound 8 µM) was 0.948. The relative viability ([4]; first compound 0.08 µM) was 0.984, the relative viability ([4]; first compound 0.253 µM) was 0.998 and the relative viability ([4]; first compound 0.8 µM) was 1.02. It also gave a relative viability ([4]; first compound 2.53 µM) of 0.954 and a relative viability ([4]; first compound 8 µM) of 0.954.

In the case of PC-14, the relative viability ([1]; first compound 0.08 µM) is reported as 0.893, the relative viability ([1]; first compound 0.253 µM) is reported as 0.863 and the relative viability ([1]; first compound 0.8 µM) is reported as 1.02. The relative viability ([1]; first compound 2.53 µM) was 0.961, the relative viability ([1]; first compound 8 µM) was 0.922 and the relative viability ([2]; first compound 0.08 µM) was 0.268. The relative viability ([2]; first compound 0.253 µM) was 0.289, the relative viability ([2]; first compound 0.8 µM) was 0.258 and the relative viability ([2]; first compound 2.53 µM) was 0.248. For the same cell line, the relative viability ([2]; first compound 8 µM) was 0.302, the relative viability ([3]; first compound 0.08 µM) was 0.128 and the relative viability ([3]; first compound 0.253 µM) was 0.138. For the same cell line, the relative viability ([3]; first compound 0.8 µM) was 0.129, the relative viability ([3]; first compound 2.53 µM) was 0.131 and the relative viability ([3]; first compound 8 µM) was 0.148. The relative viability ([4]; first compound 0.08 µM) was 1.02, the relative viability ([4]; first compound 0.253 µM) was 1.04 and the relative viability ([4]; first compound 0.8 µM) was 1.01. It also gave a relative viability ([4]; first compound 2.53 µM) of 1.05 and a relative viability ([4]; first compound 8 µM) of 0.94.

NCI-H650 gave a relative viability ([1]; first compound 0.08 µM) of 0.598, a relative viability ([1]; first compound 0.253 µM) of 0.648 and a relative viability ([1]; first compound 0.8 µM) of 0.756. The relative viability ([1]; first compound 2.53 µM) was 0.654, the relative viability ([1]; first compound 8 µM) was 0.61 and the relative viability ([2]; first compound 0.08 µM) was 0.343. It also gave a relative viability ([2]; first compound 0.253 µM) of 0.32, a relative viability ([2]; first compound 0.8 µM) of 0.44 and a relative viability ([2]; first compound 2.53 µM) of 0.364. For the same cell line, the relative viability ([2]; first compound 8 µM) was 0.354, the relative viability ([3]; first compound 0.08 µM) was 0.978 and the relative viability ([3]; first compound 0.253 µM) was 0.871. It also gave a relative viability ([3]; first compound 0.8 µM) of 0.848, a relative viability ([3]; first compound 2.53 µM) of 0.812 and a relative viability ([3]; first compound 8 µM) of 0.726. For the same cell line, the relative viability ([4]; first compound 0.08 µM) was 0.831, the relative viability ([4]; first compound 0.253 µM) was 0.966 and the relative viability ([4]; first compound 0.8 µM) was 0.924. For the same cell line, the relative viability ([4]; first compound 2.53 µM) was 0.796 and the relative viability ([4]; first compound 8 µM) was 0.875.

In the case of NCI-H1666, the relative viability ([1]; first compound 0.08 µM) is reported as 0.993, the relative viability ([1]; first compound 0.253 µM) is reported as 0.903 and the relative viability ([1]; first compound 0.8 µM) is reported as 0.829. The relative viability ([1]; first compound 2.53 µM) was 0.944, the relative viability ([1]; first compound 8 µM) was 0.728 and the relative viability ([2]; first compound 0.08 µM) was 0.764. The relative viability ([2]; first compound 0.253 µM) was 0.744, the relative viability ([2]; first compound 0.8 µM) was 0.809 and the relative viability ([2]; first compound 2.53 µM) was 0.796. It also gave a relative viability ([2]; first compound 8 µM) of 0.779, a relative viability ([3]; first compound 0.08 µM) of 0.771 and a relative viability ([3]; first compound 0.253 µM) of 0.836. It also gave a relative viability ([3]; first compound 0.8 µM) of 0.932, a relative viability ([3]; first compound 2.53 µM) of 0.834 and a relative viability ([3]; first compound 8 µM) of 0.722. For the same cell line, the relative viability ([4]; first compound 0.08 µM) was 0.759, the relative viability ([4]; first compound 0.253 µM) was 0.775 and the relative viability ([4]; first compound 0.8 µM) was 0.773. It also gave a relative viability ([4]; first compound 2.53 µM) of 0.708 and a relative viability ([4]; first compound 8 µM) of 0.757.

For NCI-H2085, the relative viability ([1]; first compound 0.08 µM) was 0.852, the relative viability ([1]; first compound 0.253 µM) was 0.871 and the relative viability ([1]; first compound 0.8 µM) was 0.928. For the same cell line, the relative viability ([1]; first compound 2.53 µM) was 1.03, the relative viability ([1]; first compound 8 µM) was 0.742 and the relative viability ([2]; first compound 0.08 µM) was 0.738. For the same cell line, the relative viability ([2]; first compound 0.253 µM) was 0.779, the relative viability ([2]; first compound 0.8 µM) was 0.845 and the relative viability ([2]; first compound 2.53 µM) was 0.744. The relative viability ([2]; first compound 8 µM) was 0.873, the relative viability ([3]; first compound 0.08 µM) was 0.934 and the relative viability ([3]; first compound 0.253 µM) was 0.769. It also gave a relative viability ([3]; first compound 0.8 µM) of 0.81, a relative viability ([3]; first compound 2.53 µM) of 0.863 and a relative viability ([3]; first compound 8 µM) of 1.07. It also gave a relative viability ([4]; first compound 0.08 µM) of 0.828, a relative viability ([4]; first compound 0.253 µM) of 0.917 and a relative viability ([4]; first compound 0.8 µM) of 1.06. It also gave a relative viability ([4]; first compound 2.53 µM) of 0.912 and a relative viability ([4]; first compound 8 µM) of 0.846.
